Where “and” joins values, the source holds several entries; their conditions need not be identical. Equal entries are not always repeated. Each block holds one compound with its values, some of them ahead of it.
Assays:
Test in all cases: In-cell proteome-wide competitive ABPP, HEK293: other DUBs and proteins
[1] = target: DUBs and other proteins in HEK293 cells (Homo sapiens, UniProt O00303); conditions: for Log2 reporter intensity values, EIF3F: TMT replicates; for Log2 reporter intensity values / Log2 reporter intensity values: EIF3F: replicates A-C; for Log2 reporter intensity values: EIF3F: competition with ABP 2, DMSO substract (FC)
Chain of DUBs and other proteins in HEK293 cells (Homo sapiens, UniProt O00303) (O00303 whole entry): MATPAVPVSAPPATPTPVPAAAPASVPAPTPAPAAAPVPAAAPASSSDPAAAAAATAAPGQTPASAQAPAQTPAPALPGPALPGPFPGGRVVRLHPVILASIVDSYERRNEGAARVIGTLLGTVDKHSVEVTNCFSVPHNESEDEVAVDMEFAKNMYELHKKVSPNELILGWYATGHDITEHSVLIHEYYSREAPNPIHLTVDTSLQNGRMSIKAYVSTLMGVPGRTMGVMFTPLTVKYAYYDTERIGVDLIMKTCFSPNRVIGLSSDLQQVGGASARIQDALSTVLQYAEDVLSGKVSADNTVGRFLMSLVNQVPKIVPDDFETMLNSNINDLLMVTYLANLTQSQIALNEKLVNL

[2] = target: DUBs and other proteins in HEK293 cells (Homo sapiens, UniProt Q9UPU5); conditions: replicates A-C; for Log2 reporter intensity values: USP24: DMSO substract (FC); for Log2 reporter intensity values: USP24, DMSO subtracted
Chain of DUBs and other proteins in HEK293 cells (Homo sapiens, UniProt Q9UPU5) (Q9UPU5 whole entry): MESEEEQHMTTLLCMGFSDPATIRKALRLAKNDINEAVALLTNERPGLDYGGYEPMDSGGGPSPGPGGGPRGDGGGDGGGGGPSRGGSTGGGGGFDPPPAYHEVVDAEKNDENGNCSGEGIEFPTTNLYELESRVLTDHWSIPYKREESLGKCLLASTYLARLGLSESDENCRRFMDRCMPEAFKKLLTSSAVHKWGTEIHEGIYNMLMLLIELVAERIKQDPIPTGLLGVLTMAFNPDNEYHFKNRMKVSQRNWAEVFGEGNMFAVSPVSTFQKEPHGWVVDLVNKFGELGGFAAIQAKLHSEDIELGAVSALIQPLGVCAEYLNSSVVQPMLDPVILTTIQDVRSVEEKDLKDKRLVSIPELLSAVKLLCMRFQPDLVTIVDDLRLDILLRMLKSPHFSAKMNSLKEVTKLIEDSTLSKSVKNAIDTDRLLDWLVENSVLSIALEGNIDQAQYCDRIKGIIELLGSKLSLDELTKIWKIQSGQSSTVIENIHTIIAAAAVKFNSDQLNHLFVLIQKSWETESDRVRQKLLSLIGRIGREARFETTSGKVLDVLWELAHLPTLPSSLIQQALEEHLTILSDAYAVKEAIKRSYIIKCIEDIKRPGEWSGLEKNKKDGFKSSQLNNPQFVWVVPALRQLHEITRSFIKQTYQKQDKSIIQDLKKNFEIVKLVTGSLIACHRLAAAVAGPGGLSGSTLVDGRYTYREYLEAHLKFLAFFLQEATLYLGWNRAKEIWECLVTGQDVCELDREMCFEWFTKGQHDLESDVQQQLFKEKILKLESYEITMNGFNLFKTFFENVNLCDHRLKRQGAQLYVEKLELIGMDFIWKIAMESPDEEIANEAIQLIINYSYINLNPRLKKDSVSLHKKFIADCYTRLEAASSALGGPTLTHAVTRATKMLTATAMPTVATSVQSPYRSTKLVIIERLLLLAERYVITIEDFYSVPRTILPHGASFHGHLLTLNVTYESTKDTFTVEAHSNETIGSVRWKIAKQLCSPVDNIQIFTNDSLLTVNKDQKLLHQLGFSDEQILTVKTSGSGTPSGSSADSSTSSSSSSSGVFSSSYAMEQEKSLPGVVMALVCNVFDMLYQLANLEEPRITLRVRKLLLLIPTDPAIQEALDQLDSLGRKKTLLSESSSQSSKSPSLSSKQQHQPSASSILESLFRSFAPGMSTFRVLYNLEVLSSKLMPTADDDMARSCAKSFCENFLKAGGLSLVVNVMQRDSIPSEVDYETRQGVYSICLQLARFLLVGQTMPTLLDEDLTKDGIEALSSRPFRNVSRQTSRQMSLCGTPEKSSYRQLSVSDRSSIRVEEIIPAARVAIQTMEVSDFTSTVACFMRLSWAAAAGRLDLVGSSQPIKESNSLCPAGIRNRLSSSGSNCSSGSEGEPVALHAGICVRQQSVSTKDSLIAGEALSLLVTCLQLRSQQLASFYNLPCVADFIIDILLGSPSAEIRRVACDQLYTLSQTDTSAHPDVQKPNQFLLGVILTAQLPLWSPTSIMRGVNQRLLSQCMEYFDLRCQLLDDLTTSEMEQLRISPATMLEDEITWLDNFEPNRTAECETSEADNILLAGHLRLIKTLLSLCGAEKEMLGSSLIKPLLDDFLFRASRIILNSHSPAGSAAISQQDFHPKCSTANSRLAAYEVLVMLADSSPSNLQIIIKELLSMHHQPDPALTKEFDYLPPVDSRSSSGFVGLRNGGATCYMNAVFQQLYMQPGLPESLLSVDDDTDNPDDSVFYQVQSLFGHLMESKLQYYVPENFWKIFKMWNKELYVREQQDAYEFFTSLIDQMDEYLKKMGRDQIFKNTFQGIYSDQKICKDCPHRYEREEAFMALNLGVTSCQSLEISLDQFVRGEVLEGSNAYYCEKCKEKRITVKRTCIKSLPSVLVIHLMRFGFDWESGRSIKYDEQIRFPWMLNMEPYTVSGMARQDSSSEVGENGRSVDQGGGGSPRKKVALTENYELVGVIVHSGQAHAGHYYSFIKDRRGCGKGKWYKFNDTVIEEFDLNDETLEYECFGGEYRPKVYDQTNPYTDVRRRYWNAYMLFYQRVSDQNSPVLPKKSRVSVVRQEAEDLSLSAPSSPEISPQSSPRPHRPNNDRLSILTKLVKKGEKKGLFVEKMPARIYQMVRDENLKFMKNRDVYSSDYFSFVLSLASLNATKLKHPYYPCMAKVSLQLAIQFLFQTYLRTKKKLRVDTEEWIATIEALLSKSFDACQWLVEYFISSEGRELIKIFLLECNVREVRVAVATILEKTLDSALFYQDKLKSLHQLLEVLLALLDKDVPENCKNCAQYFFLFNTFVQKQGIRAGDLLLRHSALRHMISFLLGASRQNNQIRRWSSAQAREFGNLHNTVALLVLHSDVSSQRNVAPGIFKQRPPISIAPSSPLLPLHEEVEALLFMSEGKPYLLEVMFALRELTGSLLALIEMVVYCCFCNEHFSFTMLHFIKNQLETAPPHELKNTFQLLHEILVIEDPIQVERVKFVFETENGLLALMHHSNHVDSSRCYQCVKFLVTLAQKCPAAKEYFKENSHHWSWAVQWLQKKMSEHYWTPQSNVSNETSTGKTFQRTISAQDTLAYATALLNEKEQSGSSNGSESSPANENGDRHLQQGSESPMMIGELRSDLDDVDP

[3] = target: T1, DUBs and other proteins in HEK293 cells (Homo sapiens, UniProt Q86UV5); conditions: for Log2 reporter intensity values: USP48: DMSO substract (FC), replicates A-B; for Log2 reporter intensity values: USP48, DMSO subtracted
T1 sequence (Q86UV5 1-1035): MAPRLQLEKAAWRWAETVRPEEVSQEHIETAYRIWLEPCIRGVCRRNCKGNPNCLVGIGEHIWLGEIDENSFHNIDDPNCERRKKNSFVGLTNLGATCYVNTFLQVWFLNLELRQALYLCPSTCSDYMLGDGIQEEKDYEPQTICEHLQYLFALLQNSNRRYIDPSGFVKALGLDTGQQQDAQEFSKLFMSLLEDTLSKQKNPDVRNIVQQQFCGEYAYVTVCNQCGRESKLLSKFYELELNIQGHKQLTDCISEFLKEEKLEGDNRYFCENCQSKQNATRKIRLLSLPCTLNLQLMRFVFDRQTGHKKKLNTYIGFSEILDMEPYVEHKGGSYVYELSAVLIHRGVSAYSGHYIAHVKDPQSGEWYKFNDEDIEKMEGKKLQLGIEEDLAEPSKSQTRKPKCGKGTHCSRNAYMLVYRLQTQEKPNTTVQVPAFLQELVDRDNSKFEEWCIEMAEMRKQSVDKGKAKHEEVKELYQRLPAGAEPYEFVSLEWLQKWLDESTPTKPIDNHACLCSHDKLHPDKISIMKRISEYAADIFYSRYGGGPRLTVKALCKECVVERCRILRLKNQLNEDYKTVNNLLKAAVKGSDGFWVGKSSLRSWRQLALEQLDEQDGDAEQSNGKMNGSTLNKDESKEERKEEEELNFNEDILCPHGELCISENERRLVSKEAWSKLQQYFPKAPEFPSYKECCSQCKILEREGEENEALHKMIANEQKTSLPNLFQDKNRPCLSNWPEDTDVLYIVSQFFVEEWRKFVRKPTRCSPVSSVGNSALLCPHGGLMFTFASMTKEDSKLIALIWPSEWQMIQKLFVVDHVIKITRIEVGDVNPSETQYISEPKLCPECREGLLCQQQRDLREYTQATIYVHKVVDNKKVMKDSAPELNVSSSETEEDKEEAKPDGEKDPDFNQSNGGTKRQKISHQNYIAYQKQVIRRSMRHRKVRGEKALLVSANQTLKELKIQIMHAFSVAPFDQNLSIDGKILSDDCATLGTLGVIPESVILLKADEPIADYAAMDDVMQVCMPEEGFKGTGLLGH

[4] = target: DUBs and other proteins in HEK293 cells (Homo sapiens, UniProt Q7L5N1); conditions: for Log2 reporter intensity values, COPS6: TMT replicates; for Log2 t-test Difference / Log2 reporter intensity values: COPS6; for Log2 reporter intensity values / Log2 reporter intensity values: COPS6: replicates A-C; for Log2 reporter intensity values: COPS6: DMSO substract (FC)
Chain of DUBs and other proteins in HEK293 cells (Homo sapiens, UniProt Q7L5N1) (Q7L5N1 whole entry): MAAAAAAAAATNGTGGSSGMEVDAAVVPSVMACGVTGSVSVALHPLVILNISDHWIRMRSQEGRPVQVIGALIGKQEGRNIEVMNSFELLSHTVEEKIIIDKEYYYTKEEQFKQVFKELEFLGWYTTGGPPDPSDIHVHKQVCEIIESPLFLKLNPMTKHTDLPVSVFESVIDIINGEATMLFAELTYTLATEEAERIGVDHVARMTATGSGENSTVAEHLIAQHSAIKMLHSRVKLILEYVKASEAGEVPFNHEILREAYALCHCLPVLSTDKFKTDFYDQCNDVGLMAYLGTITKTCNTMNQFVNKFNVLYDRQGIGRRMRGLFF

[5] = target: DUBs and other proteins in HEK293 cells (Homo sapiens, UniProt P54578); conditions: replicates A-C; for Log2 reporter intensity values: USP14: competition with ABP 2, DMSO substract (FC); for Log2 reporter intensity values: USP14, DMSO subtracted
Chain of DUBs and other proteins in HEK293 cells (Homo sapiens, UniProt P54578) (P54578 whole entry): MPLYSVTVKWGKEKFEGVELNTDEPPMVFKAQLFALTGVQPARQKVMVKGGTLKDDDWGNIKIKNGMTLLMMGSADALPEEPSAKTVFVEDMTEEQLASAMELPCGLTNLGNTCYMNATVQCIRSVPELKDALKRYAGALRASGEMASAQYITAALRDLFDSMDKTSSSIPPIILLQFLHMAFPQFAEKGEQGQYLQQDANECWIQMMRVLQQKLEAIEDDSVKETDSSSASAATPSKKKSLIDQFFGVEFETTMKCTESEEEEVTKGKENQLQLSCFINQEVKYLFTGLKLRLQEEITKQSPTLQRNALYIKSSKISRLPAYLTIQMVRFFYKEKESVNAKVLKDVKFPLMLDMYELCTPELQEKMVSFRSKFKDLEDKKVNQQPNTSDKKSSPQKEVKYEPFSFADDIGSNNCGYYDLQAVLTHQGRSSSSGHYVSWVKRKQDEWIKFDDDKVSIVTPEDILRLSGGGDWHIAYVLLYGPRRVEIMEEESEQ

[6] = target: DUBs and other proteins in HEK293 cells (Homo sapiens, UniProt Q93009); conditions: replicates A-C; for Log2 reporter intensity values: USP7: DMSO substract (FC); for Log2 reporter intensity values: USP7, DMSO subtracted
Chain of DUBs and other proteins in HEK293 cells (Homo sapiens, UniProt Q93009) (Q93009 whole entry): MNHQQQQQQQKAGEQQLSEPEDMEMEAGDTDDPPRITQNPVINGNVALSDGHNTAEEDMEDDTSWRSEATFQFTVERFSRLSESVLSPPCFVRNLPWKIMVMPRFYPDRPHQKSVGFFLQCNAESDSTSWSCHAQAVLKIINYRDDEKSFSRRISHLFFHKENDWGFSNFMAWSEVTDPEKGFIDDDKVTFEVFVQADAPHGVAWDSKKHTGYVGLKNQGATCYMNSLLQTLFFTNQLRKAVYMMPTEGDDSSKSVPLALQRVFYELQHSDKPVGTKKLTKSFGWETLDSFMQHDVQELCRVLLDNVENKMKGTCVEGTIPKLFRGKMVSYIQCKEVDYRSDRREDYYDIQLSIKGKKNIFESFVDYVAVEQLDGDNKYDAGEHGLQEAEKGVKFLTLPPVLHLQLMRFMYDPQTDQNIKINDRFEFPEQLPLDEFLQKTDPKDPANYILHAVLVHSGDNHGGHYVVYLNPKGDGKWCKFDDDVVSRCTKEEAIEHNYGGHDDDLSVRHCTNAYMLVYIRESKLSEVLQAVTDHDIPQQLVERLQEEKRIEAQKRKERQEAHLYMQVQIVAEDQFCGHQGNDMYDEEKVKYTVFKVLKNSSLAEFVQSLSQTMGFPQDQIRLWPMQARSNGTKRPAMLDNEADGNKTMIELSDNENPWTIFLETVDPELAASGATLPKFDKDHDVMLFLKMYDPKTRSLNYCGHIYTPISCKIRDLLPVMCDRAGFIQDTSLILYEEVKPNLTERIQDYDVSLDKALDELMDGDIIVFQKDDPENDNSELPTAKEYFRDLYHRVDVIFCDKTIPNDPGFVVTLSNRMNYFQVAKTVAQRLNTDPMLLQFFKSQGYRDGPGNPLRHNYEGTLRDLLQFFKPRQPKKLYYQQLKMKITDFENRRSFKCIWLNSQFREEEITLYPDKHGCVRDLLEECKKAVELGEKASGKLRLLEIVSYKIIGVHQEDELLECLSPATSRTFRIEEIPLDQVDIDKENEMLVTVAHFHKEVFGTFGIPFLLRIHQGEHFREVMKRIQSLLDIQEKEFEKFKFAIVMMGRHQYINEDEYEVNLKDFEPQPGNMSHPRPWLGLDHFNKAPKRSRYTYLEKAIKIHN

[7] = target: T2, DUBs and other proteins in HEK293 cells (Homo sapiens, UniProt P51665); conditions: replicates A-C; for Log2 reporter intensity values: PSMD7: DMSO substract (FC); for Log2 reporter intensity values: PSMD7, DMSO subtracted
T2 sequence (P51665 1-324): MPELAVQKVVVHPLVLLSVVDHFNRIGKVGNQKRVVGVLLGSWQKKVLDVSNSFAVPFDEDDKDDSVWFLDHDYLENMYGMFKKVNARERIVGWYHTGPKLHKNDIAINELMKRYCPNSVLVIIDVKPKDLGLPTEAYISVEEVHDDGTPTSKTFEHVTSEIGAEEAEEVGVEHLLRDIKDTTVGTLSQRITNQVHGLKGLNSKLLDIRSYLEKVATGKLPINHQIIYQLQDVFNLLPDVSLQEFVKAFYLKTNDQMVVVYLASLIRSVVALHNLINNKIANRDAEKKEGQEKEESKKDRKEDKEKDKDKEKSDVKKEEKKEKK

[8] = 5 μM LDN-57444 (60 min) + 20 nM ABP 2 (10 min), All values
[9] = 5 μM LDN-57444 (60 min) + 20 nM ABP 2 (10 min), DMSO subtracted
[10] = 25 μM LDN-57444 (60 min) + 20 nM ABP 2 (10 min), All values
[11] = 25 μM LDN-57444 (60 min) + 20 nM ABP 2 (10 min), DMSO subtracted
[12] = LDN at 5 μM, competition with ABP 2
[13] = LDN at 25 μM, competition with ABP 2

SMILES: CC(=O)O/N=C1\C(=O)N(Cc2cc(Cl)ccc2Cl)c2ccc(Cl)cc21 [LDN]
Log2 reporter intensity values, EIF3F [1, 8]: 0.1312 and 0.08738 and -0.0291
Log2 reporter intensity values, EIF3F [1, 9]: 0.1407 and 0.09693 and -0.01955
Log2 reporter intensity values, EIF3F [1, 10]: 0.03265 and -0.09761 and -0.112
Log2 reporter intensity values, EIF3F [1, 11]: 0.0422 and -0.08806 and -0.1024
Log2 t-test Difference ([1]; EIF3F, LDN - 5 μM): -0.01801
Log2 reporter intensity values ([1]; EIF3F, LDN at 5 μM, DMSO subtracted): 0.1407 and 0.09693 and -0.01955
Log2 reporter intensity values ([1]; EIF3F, LDN at 25 μM, DMSO subtracted): 0.0422 and -0.08806 and -0.1024
Log2 reporter intensity values ([1]; EIF3F, LDN_5 μM, DMSO subtracted): 0.102 and 0.06908 and -0.01388
Log2 reporter intensity values ([1]; EIF3F, LDN_25 μM, DMSO subtracted): 0.02927 and -0.05963 and -0.06897
Log2 reporter intensity values: EIF3F ([1]; LDN at 5 μM): 1.102 and 1.069 and 0.9865
Log2 reporter intensity values: EIF3F ([1]; LDN at 25 μM): 1.03 and 0.9408 and 0.9315
Log2 reporter intensity values: USP24 [2, 12]: 0.8375 and 1.105 and 1.062
Log2 reporter intensity values: USP24 [2, 13]: 1.15 and 1.015 and 1.054
Log2 reporter intensity values ([2]; LDN at 5 μM): -0.2559 and 0.1441 and 0.08741
Log2 reporter intensity values ([2]; LDN at 25 μM): 0.2018 and 0.02211 and 0.07566
Log2 reporter intensity values ([2]; LDN_5 μM): -0.1659 and 0.1016 and 0.0591
Log2 reporter intensity values ([2]; LDN_25 μM): 0.1468 and 0.01208 and 0.05048
Log2 reporter intensity values: USP48 [3, 12]: 1.048 and 1.119
Log2 reporter intensity values: USP48 [3, 13]: 1.118 and 1.08
Log2 reporter intensity values ([3]; LDN at 5 μM, replicates A-C): 0.0673 and 0.1618
Log2 reporter intensity values ([3]; LDN at 25 μM, replicates A-C): 0.1604 and 0.1117
Log2 reporter intensity values ([3]; LDN_5 μM, replicates A-B (C NaN)): 0.04647 and 0.1174
Log2 reporter intensity values ([3]; LDN_25 μM, replicates A-B (C NaN)): 0.1163 and 0.0792
Log2 reporter intensity values, COPS6 [4, 8]: 0.1306 and 0.0287 and 0.0623
Log2 reporter intensity values, COPS6 [4, 9]: 0.1181 and 0.01629 and 0.04989
Log2 reporter intensity values, COPS6 [4, 10]: -0.04892 and -0.02797 and -0.1172
Log2 reporter intensity values, COPS6 [4, 11]: -0.06133 and -0.04038 and -0.1296
Log2 t-test Difference ([4]; LDN - 5 μM): 0.0178
Log2 reporter intensity values ([4]; LDN at 5 μM, DMSO subtracted): 0.1181 and 0.01629 and 0.04989
Log2 reporter intensity values ([4]; LDN at 25 μM, DMSO subtracted): -0.06133 and -0.04038 and -0.1296
Log2 reporter intensity values ([4]; LDN_5 μM, DMSO subtracted): 0.08523 and 0.01124 and 0.03507
Log2 reporter intensity values ([4]; LDN_25 μM, DMSO subtracted): -0.04173 and -0.02772 and -0.08603
Log2 reporter intensity values: COPS6 [4, 12]: 1.085 and 1.011 and 1.035
Log2 reporter intensity values: COPS6 [4, 13]: 0.9584 and 0.9724 and 0.9141
Log2 reporter intensity values: USP14 ([5]; LDN at 5 μM): 1.178 and 1.18 and 1.165
Log2 reporter intensity values: USP14 ([5]; LDN at 25 μM): 1.092 and 1.124 and 1.125
Log2 reporter intensity values ([5]; LDN at 5 μM): 0.2361 and 0.2386 and 0.2201
Log2 reporter intensity values ([5]; LDN at 25 μM): 0.1275 and 0.1688 and 0.1694
Log2 reporter intensity values ([5]; LDN_5 μM): 0.1776 and 0.1796 and 0.1646
Log2 reporter intensity values ([5]; LDN_25 μM): 0.0922 and 0.1239 and 0.1243
Log2 reporter intensity values: USP7 [6, 12]: 1.02 and 1.001 and 1.029
Log2 reporter intensity values: USP7 [6, 13]: 0.9945 and 1.07 and 1.065
Log2 reporter intensity values ([6]; LDN at 5 μM): 0.02794 and 0.001316 and 0.0413
Log2 reporter intensity values ([6]; LDN at 25 μM): -0.007921 and 0.09748 and 0.09021
Log2 reporter intensity values ([6]; LDN_5 μM): 0.01927 and 0.0006308 and 0.02876
Log2 reporter intensity values ([6]; LDN_25 μM): -0.005757 and 0.06962 and 0.06425
Log2 reporter intensity values: PSMD7 [7, 12]: 1.218 and 1.097 and 1.111
Log2 reporter intensity values: PSMD7 [7, 13]: 1.26 and 1.205 and 1.158
Log2 reporter intensity values ([7]; LDN at 5 μM): 0.2849 and 0.1342 and 0.1516
Log2 reporter intensity values ([7]; LDN at 25 μM): 0.3338 and 0.2689 and 0.2118
Log2 reporter intensity values ([7]; LDN_5 μM): 0.2157 and 0.09493 and 0.1083
Log2 reporter intensity values ([7]; LDN_25 μM): 0.2577 and 0.2023 and 0.1556

Log2 reporter intensity values: USP24 ([2]; 20 nM ABP 2 alone): 1.118 and 1.126 and 1.127
Log2 reporter intensity values: USP48 ([3]; 20 nM ABP 2 alone): 0.9588 and 0.9788
Log2 reporter intensity values ([3]; 20 nM ABP 2, replicates A-B (C NaN)): -0.04252 and -0.02245
Log2 reporter intensity values ([3]; 20 nM ABP 2, replicates A-C): -0.06076 and -0.03088
Log2 reporter intensity values, COPS6 ([4]; 20 nM ABP 2 (10 min), no competitor, All values): 0.06809 and 0.08942 and 0.01065
Log2 reporter intensity values, COPS6 ([4]; 20 nM ABP 2 (10 min), no competitor, DMSO subtracted): 0.05567 and 0.07701 and -0.001766
Log2 reporter intensity values: COPS6 ([4]; 20 nM ABP 2 alone): 1.039 and 1.055 and 0.9988
Log2 t-test Difference ([4]; ABP 2 - 20 nM): 0.04364
Log2 reporter intensity values: USP7 ([6]; 20 nM ABP 2 alone): 0.9183 and 1.036 and 1.009
Log2 reporter intensity values: PSMD7 ([7]; 20 nM ABP 2 alone): 0.8915
Log2 reporter intensity values ([7]; 20 nM ABP 2): 0.1122 and -0.1657 and 0.02 and 0.07832
SMILES: C#Cc1cnc2[nH]cc(-c3cccc4c3CCN4C(=O)[C@@H]3CCCN3C#N)c2c1 [Compound 2]
Log2 reporter intensity values ([2]; 20 nM ABP 2): 0.1605 and 0.1713 and 0.1729 and 0.1143 and 0.1227 and 0.1239
Log2 reporter intensity values ([4]; 20 nM ABP 2, DMSO subtracted): 0.05567 and 0.07701 and -0.001766 and 0.03923 and 0.05472 and -0.001335
Log2 reporter intensity values ([5]; 20 nM ABP 2): 0.1674 and 0.2186 and 0.2005 and 0.1633 and 0.1489
Log2 reporter intensity values ([6]; 20 nM ABP 2): 0.05058 and 0.01361 and -0.082 and 0.009195
